Measurements published in patent publication US5561131A, “Defaunation method” (Mallinckrodt Veterinary, Inc., priority 1991, dated 1996).
Several values for one entry are separate records, joined by “and”; a condition that tells them apart may be missing. Equal values may be shown once.

Experiments:
mice = experiment: Mouse safety assessment; assay type: in vivo; conditions: oral gavage, 830, 415 and 217 mg/kg, observed for 2 days
Procedure: Compounds of Table 1 chosen for testing in sheep were first tested in mice for signs of toxicity. Because sheep are approximately 5 times more sensitive than mice to compounds dosed orally, the dose rates applied to mice were 5 times greater than the target dose rate of 500 ppm. in rumen liquor (83 mg/kg live weight) used for sheep. Each compound was screened at three different dose levels, high (830 mg/kg), medium (415 mg/kg) and low (217 mg/kg).
252 mg of compound was used for dilution into a high medium and low dose rate. 252 mg of compound was mixed with 3 ml of G1284 solution (4% w/v ethoxylated castor oil and 0.05% w/v simethicone), to form the high dose composition. The medium dose composition was formed by diluting 1.5 ml of the high dose with 1.5 ml of G1284 solution. The low dose composition was formed by diluting 1.5 ml of the medium dose with 1.5 ml of G1284 solution. Before the high dose could be diluted it was first manually ball milled in an effort to produce a fine suspension of the compound.
All mice were weighed before dosing to calculate the appropriate dose rate. The calculation for dose rate was: [formula]
Each mouse was dosed using the Gavage method. With this method the mouse is dosed orally by way of an angled hypodermic needle (18 g) with a smooth spherical end. It is gently placed down the esophagus. All care must be taken not to force the needle and injure the esophagus or dose into the lungs.
Observations were made at 10, 30, 60 and 120 minutes after dosing, then every 1 or 2 hours for the first 6 hours.
Mice were usually observed for 2 days.
Typically, few compounds fell within the poor classification. The majority of compounds tested were either in the fair or good classification.

rumen ciliate protozoa = experiment: Protozoal reduction in sheep; assay type: in vivo; design: concentration or dose not given beside the values; conditions: one week after dosing, relative to predosing numbers
rumen bacteria = experiment: In vitro bacterial gas inhibition; assay type: cell-based; conditions: at the concentration known to kill protozoa
protozoa [1] = experiment: Cattle defaunation; assay type: in vivo; conditions: for Elimination of protozoa from cattle (in words): 332 mg/kg
Procedure: Four cattle each were defaunated using either compounds No. 27 or No. 37 at a dose rate of 332 mg/kg. The compounds were administered by firstly mixing with 100 mL of ethanol and then adding 400 mL of centrifuged rumen liquor. This mixture was then administered into the rumen of the animal using a stomach tube.

[2] = Liveweight gain of growing lambs; assay type: in vivo, lambs (sheep); conditions: 332 mg/kg
Procedure: (§1) Three cross-bred lambs were defaunated with compound 37 at dose rate of 332 mg per kg liveweight. The lambs were allowed four weeks to adapt to defaunation before commencing the trial. The lambs were grazed at pasture. Ten control (faunated) cohorts of the defaunated group, which were matched for liveweight, were grazed in the same paddock, but separated from the defaunated lambs by a double-fence (4 meter separation). This was to prevent the faunated lambs contaminating the defaunated lambs. Both groups of lambs were weighed on four occasions at three weekly intervals. Protozoa were also monitored at the same time.

[3] = The Pesticide Manual, 9th Ed. 1991; cited from earlier work
protozoa [4] = experiment: Reliability of defaunation using 2 repeated doses in sheep; assay type: in vivo; conditions: Group 1, 2 doses, 4 weeks
Procedure: (§2) Sheep were fed a diet of 900 g oaten chaff daily, except that food and water were withheld for 19 hours before and 24 hours after dosing. Each dose was prepared by mixing compound 37 with 20 ml of ethanol followed by 200 ml of centrifuged rumen liquor, to give a dose of 167 mg/kg body weight, administered by rumen tube. Rumen protozoa were counted weekly following the final treatment.
Sixty (60) Sheep, in three successive trials of 20 each, were treated with 2 doses of compound 37, one week apart, according to the method of Example 14. Protozoa were counted at 4 or 5 weeks after the second treatment.

rumen protozoa = experiment: Defaunation using single or 2 or 3 repeated doses in sheep; assay type: in vivo; conditions: individual sheep
Procedure: as §2
Table 9: The effect of administering compound 37 (from table 1) on mean protozoal numbers in rumen in sheep.

protozoa [5] = experiment: Protozoal population number in growing lambs; assay type: in vivo, lambs (sheep)
Procedure: as §1

In the case of Cc1ccc(Nc2nc(Cl)nc(Cl)n2)cc1Cl [Compound 27, 2,4 dichloro-6-(3 chloro-4-methylanilino)-s-triazine], the “Mouse Safety Assessment” value (mice) is reported as “Fair (>2 mice sick)”, the “Protozoal Reduction” value (rumen ciliate protozoa) is reported as 100% and the “Bact. Gas Inhibition at the conc. required to kill protozoa” value (rumen bacteria) is reported as 67. The “Elimination of protozoa from cattle (in words)” value (protozoa [1]) was “able to eliminate protozoa from cattle”, the Mean protozoal number (protozoa [1]; week 0, 332 mg/kg) was 220 per mL × 10^3 and the Mean protozoal number (protozoa [1]; week 4, 332 mg/kg) was 0 per mL × 10^3.
With Clc1nc(Cl)nc(Nc2ccccc2Cl)n1 [Compound 37, 2,4-dichloro-6-(2-chloroanilino)-1,3,5-triazine] the “Rate of liveweight gain (in words)” value ([2]; over controls, P<0.01) was “highly significant improvement in the rate of liveweight gain”, the “ADG Increase” value ([2]; relative to control) was 65% and the ADG ([2]; weeks 0-12) was 165 g/day. The “Protozoal Reduction” value (rumen ciliate protozoa) was 100%, the LD50 [3] was over 4000 mg/kg and the “Residual protozoal population (in words)” value (protozoa [4]) was “one sheep had a residual protozoal population”. For the same molecule, the “Protozoal Count” value (rumen protozoa; 2 doses 1 wk apart at 167 mg/kg/dose, week 0, 167 mg/kg) was 64,000 number/mL of rumen fluid and 68,500 number/mL of rumen fluid and 94,000 number/mL of rumen fluid, the “Protozoal Count” value (rumen protozoa; 2 doses 1 wk apart at 167 mg/kg/dose, week 1) was 0 number/mL of rumen fluid and the “Protozoal Count” value (rumen protozoa; 2 doses 1 wk apart at 167 mg/kg/dose, week 2) was 0 number/mL of rumen fluid. The “Protozoal Count” value (rumen protozoa; 2 doses 1 wk apart at 167 mg/kg/dose, week 3) was 0 number/mL of rumen fluid, the “Protozoal Count” value (rumen protozoa; 2 doses 1 wk apart at 167 mg/kg/dose, week 4) was 0 number/mL of rumen fluid and the “Protozoal Count” value (rumen protozoa; 3 doses 1 wk apart at 167 mg/kg per dose, week 0, 167 mg/kg) was 259,000 number/mL of rumen fluid and 242,500 number/mL of rumen fluid and 122,500 number/mL of rumen fluid. The “Protozoal Count” value (rumen protozoa; 3 doses 1 wk apart at 167 mg/kg per dose, week 1) was 0 number/mL of rumen fluid, the “Protozoal Count” value (rumen protozoa; 3 doses 1 wk apart at 167 mg/kg per dose, week 2) was 0 number/mL of rumen fluid and the “Protozoal Count” value (rumen protozoa; 3 doses 1 wk apart at 167 mg/kg per dose, week 3) was 0 number/mL of rumen fluid. For the same molecule, the “Protozoal Count” value (rumen protozoa; 3 doses 1 wk apart at 167 mg/kg per dose, week 4) was 0 number/mL of rumen fluid, the “Protozoal Count” value (rumen protozoa; single dose 167 mg/kg, week 0, 167 mg/kg) was 151,500 number/mL of rumen fluid and 300,000 number/mL of rumen fluid and 149,500 number/mL of rumen fluid and the “Protozoal Count” value (rumen protozoa; single dose 167 mg/kg, week 1) was 0 number/mL of rumen fluid. For the same molecule, the “Protozoal Count” value (rumen protozoa; single dose 167 mg/kg, week 2, 167 mg/kg) was 370,000 number/mL of rumen fluid and 0 number/mL of rumen fluid and 4,500 number/mL of rumen fluid, the “Protozoal Count” value (rumen protozoa; single dose 167 mg/kg, week 3) was 88,800 number/mL of rumen fluid and the Protozoal numbers (protozoa [5]; week 0, 332 mg/kg) was 0 per mL × 10^3. The Protozoal numbers (protozoa [5]; week 3, 332 mg/kg) was 0 per mL × 10^3, the Protozoal numbers (protozoa [5]; week 6, 332 mg/kg) was 0 per mL × 10^3 and the Protozoal numbers (protozoa [5]; week 9, 332 mg/kg) was 0 per mL × 10^3. For the same molecule, the Protozoal numbers (protozoa [5]; week 12, 332 mg/kg) was 0 per mL × 10^3, the “Bact. Gas Inhibition at the conc. required to kill protozoa” value (rumen bacteria) was 57 and the “Elimination of protozoa from cattle (in words)” value (protozoa [1]) was “able to eliminate protozoa from cattle”. It also gave a Mean protozoal number (protozoa [1]; week 0, 332 mg/kg) of 313 per mL × 10^3 and a Mean protozoal number (protozoa [1]; week 4, 332 mg/kg) of 0 per mL × 10^3.
